What was measured:
[1] = target: T1, human melatonin 1 receptors (human MT1 receptors) (Homo sapiens, UniProt P48039); experiment: Melatonin receptor binding inhibitory test, 2-[125I] Iodomelatonin, MT1; conditions: membrane fraction of CHO-hMelR7 cells, 25° C. for 2.5 hr, read-out: binding inhibitory activity as IC50 value for MT1
T1 construct: expressed in transfected cells; membrane fraction
Procedure: (§1) Melatonin Receptor Binding Inhibitory Test
(1) Preparation of CHO-hMelR7 Cells expressing Human Melatonin 1 Receptors
A cDNA fragment (SEQ ID NO: 1) encoding full-length of human melatonin 1 receptors (human MT1 receptors) was incorporated into expression vector pAKKO-111H (former name pAKKO1.11H; Biochim Biophys Acta. Vol. 1219(2), pp. 251-259, 1994) to give plasmid pAKKO-hMelR7 for animal cell expression. CHO/dhfr-cells (ATCC, #CRL-9096) were plated at a concentration of 0.3×10^6 cells/dish in a 6 cm culture dish (Becton Dickinson), and cultured under the conditions of 37° C., 5% CO2 for 48 hr. The cells were transfected with pAKKO-hMelR7 plasmid DNA (5 μg) using Cellphect Transfection Kit (Amersham, #27-9268-01). The transfected cells were cultured in Dulbecco's modified Eagle medium (DMEM) (Sigma, #D6046) containing 10% dialyzed FBS (Biowest, #S180D), 1× Non-Essential Amino Acid (Invitrogen, #11140-050) and 50 μg/mL Gentamycin (Invitrogen, #15750-060), and the cell line that stably expressed the plasmid gene was selected. By a receptor binding assay using 2-[^125I] Iodomelatonin, CHO-hMelR7 cell line showing specific binding of 2-[^125I] Iodomelatonin was selected from the obtained clones.
(§2) (3) Preparation of Cellular Membrane Fraction of CHO Cell (CHO-hMelR7 and CHO-hMT2) Stably Expressing Human MT1 and MT2 Receptors
(§3) CHO-hMelR7 and CHO-hMT2 cells were plated using Cellfactory (Nunc, #170009) under the conditions of 1×10^8 cells/2000 mL/flask. The cells were grown to confluent, and recovered by the following method. As the medium for CHO-hMelR7 and CHO-hMT2, MEM a containing 10% FBS and penicillin/streptomycin was used. […]
(§4) The medium was discarded, cells were washed twice with 200 mL of EDTA/PBS(−), 200 mL of EDTA/PBS(−) was further added, and the cells were stood still at room temperature for 20 min until they were released. The cells were recovered in four 50 mL tubes (Becton Dickinson, #352070), and centrifuged at 1,500 rpm for 10 min at 4° C. using a low speed cooling centrifuge (Hitachi, CF7D2). The supernatant was discarded, the pellets in the four tubes were suspended in 10 mL of PBS(−), and combined in one tube (Becton Dickinson, #352070). The mixture was further centrifuged at 1,500 rpm for 10 min at 4° C., and the obtained pellets were suspended in 20 mL of ice-cooled homogenizing buffer [10 mM NaHCO3, 5 mM EDTA, Protease inhibitor Complete (Roche), pH 7.4]. The cell suspension was homogenized 3 times using a polytron homogenizer at 20,000 rpm for 30 sec. The obtained homogenate was centrifuged (2,000 rpm, 10 min, 4° C.) using a low speed cooling centrifuge. The supernatant was recovered in an ultracentrifugation tube and ultracentrifuged (40,000 rpm, 60 min, 4° C.) using an ultracentrifuge (Beckman, L-90K). To the obtained pellets was added a suspending buffer [50 mM Tris-HCl, 1 mM EDTA, Protease inhibitor Complete (Roche), pH 7.4], and the pellets were suspended by pipetting. The protein concentration of this suspension was measured, diluted to 2 mg/mL to give cellular membrane fractions of CHO-hMelR7 and CHO-hMT2 cells. The membrane fractions were dispensed to 1.5 mL tubes (Eppendorf, #0030120.086) by 100 μL, preserved in a freezer (−80° C.) and used for a binding assay. Protein was quantified using BCA protein assay kit (Pierce) with BSA as the standard.
(§5) (4) Preparation of Membrane Fraction Suspension
(§6) Immediately before use, the membrane fractions of CHO-hMelR7 and CHO-hMT2 cells of the above-mentioned (3) were diluted 20-fold with assay buffer (50 mM Tris-HCl, pH 7.7).
(§7) (5) Preparation of 2-[^125I] Iodomelatonin Solution
(§8) 2-[^125I] Iodomelatonin (#NEX236, PerkinElmer) was diluted with the assay buffer to 400 pM for MT1 and 1 nM for MT2.
The assay buffer (80 μL) of the above-mentioned (4) was added to each well of a 96-well plate (type 3363, Corning). Then, a test compound (compound solution diluted with DMSO to 200-fold of the final measurement concentration) was added by 2 μL. […]

[2] = target: T2, human melatonin 2 receptors (human MT2 receptors) (Homo sapiens, UniProt P49286); experiment: Melatonin receptor binding inhibitory test, 2-[125I] Iodomelatonin, MT2; conditions: membrane fraction of CHO-hMT2 cells, 25° C. for 2.5 hr, read-out: binding inhibitory activity as IC50 value for MT2
T2 construct: expressed in transfected cells; membrane fraction
T2 sequence (P49286 1-362): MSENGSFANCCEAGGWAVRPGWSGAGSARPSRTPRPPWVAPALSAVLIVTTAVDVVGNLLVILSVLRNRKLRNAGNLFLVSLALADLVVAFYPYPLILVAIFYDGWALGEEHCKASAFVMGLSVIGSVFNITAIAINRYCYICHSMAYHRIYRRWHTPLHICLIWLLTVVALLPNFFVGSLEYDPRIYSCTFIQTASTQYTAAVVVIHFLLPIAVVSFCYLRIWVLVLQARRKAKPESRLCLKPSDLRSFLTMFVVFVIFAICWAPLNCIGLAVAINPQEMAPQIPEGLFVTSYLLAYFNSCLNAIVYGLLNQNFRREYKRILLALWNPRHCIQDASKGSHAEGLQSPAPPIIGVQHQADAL
Procedure: as §1
(2) Preparation of CHO-hMT2 Cells Expressing Human Melatonin 2 Receptors
A cDNA fragment (SEQ ID NO: 2) encoding full-length of human melatonin 2 receptors (human MT2 receptors) was incorporated into expression vector pCMV-Script (Stratagene, #212220) to give the plasmid that was pCMV-human MT2 receptors expression vector for animal cell expression. CHO-K1 cells (ATCC, #CCL-61) were plated at the concentration of 1.5×10^5 cells/cm^2 in a 6 well plate (ASAHI TECHNO GLASS), and cultured under the conditions of 37° C., 5% CO2 for 24 hr. For gene transfection, solution obtained by blending pCMV-human MT2 receptors expression vector (1.9 μg), Lipofectamine Transfection Reagent (Invitrogen, #18324-012) (11.3 μL) and Minimum Essential Medium Eagle (MEM) medium (Sigma, M8042) (93.8 μL), and reacting at room temperature for 20 min was added to the cells per one well. The transfected cells were cultured in MEM medium containing 10% FBS (Life Technology) and 300 μg/mL Geneticin (GIBCO, #10131), and the cell line that stably expressed the plasmid gene was selected. By a receptor binding assay using 2-[^125I] Iodomelatonin, CHO-hMT2 cell line showing specific binding of 2-[^125I] Iodomelatonin was selected from the obtained clones.
as §2, §3, §4, §5, §6, §7, §8
The assay buffer (80 μL) of the above-mentioned (4) was added to each well of a 96-well plate (type 3363, Corning). […]

T1 sequence (P48039 whole entry): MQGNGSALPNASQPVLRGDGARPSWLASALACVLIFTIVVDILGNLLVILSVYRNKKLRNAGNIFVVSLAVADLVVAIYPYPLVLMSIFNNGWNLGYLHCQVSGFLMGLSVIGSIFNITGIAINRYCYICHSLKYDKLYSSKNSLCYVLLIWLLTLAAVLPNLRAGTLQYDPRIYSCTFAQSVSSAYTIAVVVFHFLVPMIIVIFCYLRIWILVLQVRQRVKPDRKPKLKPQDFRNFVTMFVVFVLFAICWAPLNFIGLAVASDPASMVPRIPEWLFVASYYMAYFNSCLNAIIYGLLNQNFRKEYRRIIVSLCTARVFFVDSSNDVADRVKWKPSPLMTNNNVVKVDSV

Compound: CCC(=O)NCC1CC1c1cccc2nnsc12 (stereo not drawn) [Example 61, N-{[2-(1,2,3-benzothiadiazol-7-yl)cyclopropyl]methyl}propanamide]
- IC50 [1]: ≤ 100 nM
- IC50 [2]: ≤ 100 nM
- melting point: 67 to 69 °C

Compound: CCC(=O)NC[C@H]1C[C@@H]1c1cccc2nn(C)cc12 [Example 12, N-{[(1S,2S)-2-(2-methyl-2H-indazol-4-yl)cyclopropyl]methyl}propanamide]
- IC50 [1]: ≤ 100 nM
- IC50 [2]: ≤ 100 nM
- melting point: 79 to 80 °C

Compound: CC(=O)NC[C@@H]1C[C@H]1c1cccn2nc(C)cc12 [Example 44, N-{[(1R,2R)-2-(2-methylpyrazolo[1,5-a]pyridin-4-yl)cyclopropyl]methyl}acetamide]
- IC50 [1]: ≤ 100 nM
- IC50 [2]: ≤ 100 nM
- melting point: 100 to 101 °C

Compound: CCC(=O)NCC1CC1c1c(Br)ccc2nn(C)cc12 (stereo not drawn) [Example 30, N-{[2-(5-bromo-2-methyl-2H-indazol-4-yl)cyclopropyl]methyl}propanamide]
- IC50 [1]: ≤ 100 nM
- IC50 [2]: ≤ 100 nM
- melting point: 119 to 121 °C

Compound: CC(=O)NC[C@@H]1C[C@H]1c1c(F)ccc2nn(C)cc12 (relative stereo) [Example 23, trans-N-{[2-(5-fluoro-2-methyl-2H-indazol-4-yl)cyclopropyl]methyl}acetamide]
- IC50 [1]: ≤ 100 nM
- IC50 [2]: ≤ 100 nM
- melting point: 157 to 159 °C

Compound: CC(=O)NCC1CC1c1c(-c2cccnc2)ccc2nn(C)cc12 (stereo not drawn) [Example 35, N-{[2-(2-methyl-5-pyridin-3-yl-2H-indazol-4-yl)cyclopropyl]methyl}acetamide]
- IC50 [1]: ≤ 100 nM
- IC50 [2]: ≤ 100 nM
- melting point: 136 to 138 °C

Compound: Cc1cc2c([C@@H]3C[C@H]3CNC(=O)C3CC3)cccn2n1 [Example 49, N-{[(1R,2R)-2-(2-methylpyrazolo[1,5-a]pyridin-4-yl)cyclopropyl]methyl}cyclopropanecarboxamide]
- IC50 [1]: ≤ 100 nM
- IC50 [2]: ≤ 100 nM
- melting point: 127 to 129 °C

Compound: CC(=O)NCC1CC1c1cccc2nc(C)cn12 (stereo not drawn) [Example 52, N-{[2-(2-methylimidazo[1,2-a]pyridin-5-yl)cyclopropyl]methyl}acetamide]
- IC50 [1]: ≤ 100 nM
- IC50 [2]: ≤ 100 nM
- melting point: 170 to 171 °C

Compound: CCC(=O)NC[C@@H]1C[C@H]1c1cccc2nn(C)cc12 [Example 13, N-{[(1R,2R)-2-(2-methyl-2H-indazol-4-yl)cyclopropyl]methyl}propanamide]
- IC50 [1]: ≤ 100 nM
- IC50 [2]: ≤ 100 nM
- melting point: 78 to 80 °C

Compound: CCC(=O)NC[C@@H]1C[C@@H]1c1cccc2nn(C)cc12 (relative stereo) [Example 14, cis-N-{[2-(2-methyl-2H-indazol-4-yl)cyclopropyl]methyl}propanamide]
- IC50 [1]: ≤ 100 nM
- IC50 [2]: ≤ 100 nM
- melting point: 155 to 156 °C

Compound: CC(=O)NC[C@@H]1C[C@H]1c1cccc2nn(C)cc12 [Example 11, N-{[(1R,2R)-2-(2-methyl-2H-indazol-4-yl)cyclopropyl]methyl}acetamide]
- IC50 [1]: ≤ 100 nM
- IC50 [2]: ≤ 100 nM
- melting point: 145 to 147 °C

Compound: CCn1cc2c(C3CC3CNC(C)=O)cccc2n1 (stereo not drawn) [Example 16, N-{[2-(2-ethyl-2H-indazol-4-yl)cyclopropyl]methyl}acetamide]
- IC50 [1]: ≤ 100 nM
- IC50 [2]: ≤ 100 nM
- melting point: 155 to 159 °C

Compound: CC(=O)NCC1CC1c1cccc2nc(C)sc12 (stereo not drawn) [Example 58, N-{[2-(2-methyl-1,3-benzothiazol-7-yl)cyclopropyl]methyl}acetamide]
- IC50 [1]: ≤ 100 nM
- IC50 [2]: ≤ 100 nM
- melting point: 96 to 98 °C

Compound: CCC(=O)NCC1CC1c1cccc2nc(C)nn12 (stereo not drawn) [Example 57, N-{[2-(2-methyl[1,2,4]triazolo[1,5-a]pyridin-5-yl)cyclopropyl]methyl}propanamide]
- IC50 [1]: ≤ 100 nM
- IC50 [2]: ≤ 100 nM
- melting point: 118 to 119 °C

Compound: Cc1cc2c([C@H]3C[C@@H]3CNC(=O)C3CC3)cccn2n1 [Example 48, N-{[(1S,2S)-2-(2-methylpyrazolo[1,5-a]pyridin-4-yl)cyclopropyl]methyl}cyclopropanecarboxamide]
- IC50 [1]: ≤ 100 nM
- IC50 [2]: ≤ 100 nM
- melting point: 124 to 128 °C

Compound: CCC(=O)NCC1CC1c1cccc2nn(CC)cc12 (stereo not drawn) [Example 17, N-{[2-(2-ethyl-2H-indazol-4-yl)cyclopropyl]methyl}propanamide]
- IC50 [1]: ≤ 100 nM
- IC50 [2]: ≤ 100 nM
- melting point: 114 to 115 °C

Compound: CCNC(=O)NC[C@@H]1C[C@H]1c1cccn2nc(C)cc12 (relative stereo) [Example 51, trans-N-ethyl-N′-{[2-(2-methylpyrazolo[1,5-a]pyridin-4-yl)cyclopropyl]methyl}urea]
- IC50 [1]: ≤ 100 nM
- IC50 [2]: ≤ 100 nM
- melting point: 108 to 110 °C

Compound: CC(=O)NCC1CC1c1c(C2CC2)ccc2nn(C)cc12 (stereo not drawn) [Example 33, N-{[2-(5-cyclopropyl-2-methyl-2H-indazol-4-yl)cyclopropyl]methyl}acetamide]
- IC50 [1]: ≤ 100 nM
- IC50 [2]: ≤ 100 nM
- melting point: 102 to 103 °C

Compound: CC(=O)NC[C@@H]1C[C@H]1c1c(F)ccc2nn(C)cc12 [Example 25, N-{[(1R,2R)-2-(5-fluoro-2-methyl-2H-indazol-4-yl)cyclopropyl]methyl}acetamide]
- IC50 [1]: ≤ 100 nM
- IC50 [2]: ≤ 100 nM
- melting point: 120 °C

— patent US8110585B2, “Bicyclic compound and pharmaceutical use thereof” (Takeda Pharmaceutical Company Limited, priority 2007, dated 2012)
